Where two headings read alike, the source gives them in different places.
Legend:
[1] = test system: COLON ADENOCARCINOMA-26/A; format: in vivo, murine; settings: IV 6.5 mg/kg/inj days 1,5,9; total dose 19.5 mg/kg; Balb/C female mice
Source text: (§1) Inhibition of tumors transplanted into mice is an accepted procedure for studying the efficacy of antitumor agents (Corbett, et al., In vivo Methods for Screening and Preclinical Testing; Use of rodent solid tumors for drug discovery., In: Anticancer Drug Development Guide: Preclinical Screening, Clinical Trials, and Approval, B. Teicher (ed), Humana Press Inc., Totowa, N.J., Chapter 5, pages 75-99 (1997); (Corbett, et al., Int. J. Pharmacog., 33, Supplement, 102-122 (1995)). Murine tumors or human xenographs were implanted essentially as described by Corbett in In vivo Methods for Screening and Preclinical Testing; Use of rodent solid tumors for drug discovery. Briefly, the murine tumor or human xenograph was implanted subcutaneously using either 12-gauge trocar implants or counted number of cells. The location for the trocar insertion is midway between the axillary and inguinal region along the side of the mouse. The trocar is slipped approximately ¾ of an inch subcutaneously up toward the axilla before discharging the tumor fragment, and pinching the skin as the trocar is removed. Alternatively, human tumor cells prepared from a […] of donor tumors (5×10^6 cells) were implanted subcutaneously in a hind-leg of a male or female nude mouse (Charles River). Either a test compound in vehicle or vehicle alone was administered by intravenous bolus injection (iv), intraperitoneal injection (ip), or oral gavage (po). Each treatment group, as well as a group of untreated control animals, consisted of five animals per group in each experiment. Subcutaneous tumor response was monitored by tumor volume measurement performed twice each week over the course of the experiment (60-120 days). Body weights were taken as a general measure of toxicity. The subcutaneous tumor data were analyzed by determining the median tumor weight for each treatment group over the course of the experiment and calculating the tumor growth delay as the difference in days for the treatment versus the control tumors to reach a volume of either 500 or 1000 mm^3.
(§2) Cryptophycin-309 (309) was tested against a variety of murine and human tumors substantially as described supra. Cryptophycin-55 glycinate (55-GLY), Taxol, and Adriamycin (Adria) were also included in certain tests for purposes of comparison. Cryptophycin 55 glycinate is known in the art (WO 98/08505, Example 9) and has the following structure: [drawing 9]
(§3) Tumor Weight(mg)=(a×b^2)/2 where a=tumor length (mm) and b=tumor width (mm).
(§4) Tumor Growth Delay=T−C where T is the median time (days) required for the treatment group tumors to reach a predetermined size, and C is the median time (days) for the control group tumors to reach the same size. Tumor-free survivors are excluded from this calculation, and are tabulated separately (Tumor Free).
(§5) Log Kill=Tumor Growth Delay/(3.32)(Td)
(§6) where Tumor Growth Delay is as previously defined and Td is tumor volume doubling time (days), estimated from the best fit straight line from a log-linear growth plot of the control group of tumors in exponential growth (100-800 mg range)
(§7) %T/C mass—The treatment and control groups are measured when the control group tumors reach approximately 700 to 1200 mg in size (median group). The median tumor weight of each group is determined (including zeros). The T/C value in percent is an indication of antitumor effectiveness. A T/C≦42% is considered significant antitumor activity. A T/C<10% is considered to indicate highly significant antitumor activity.
(§8) Body Weight Loss Nadir—A body weight loss nadir (mean of group) of greater than 20% or drug deaths greater than 20% are considered to indicate an excessively toxic dosage in single course trials.
(§9) Activity Rating—the Activity Rating is derived from the Log Kill according to the following table: […]

[2] = test system: MAMMARY ADENOCARCINOMA-16/C/Adr; assay: Early stage murine mammary adenocarcinoma-16/C/Adr subcutaneous tumor assay; format: in vivo; settings: C3H female mice
Source text: as §1, §2, §3, §4, §5, §6, §7, §8, §9

[3] = test system: COLON ADENOCARCINOMA 51/A; assay: Early stage murine colon adenocarcinoma 51/A subcutaneous tumor assay; format: in vivo; settings: IV 6.5 mg/kg/inj days 3,6,9; total dose 19.5 mg/kg; CDF female mice
Source text: as §1, §2, §3, §4, §5, §6, §7, §8, §9

[4] = test system: MAMMARY ADENOCARCINOMA 16/C; format: in vivo, murine; settings: C3H/HeN female mice
Source text: as §1, §2, §3, §4, §5, §6, §7, §8, §9

[5] = test system: MAMMARY ADENOCARCINOMA-17/ADR/Resist.; format: in vivo, murine; settings: C3H female mice
Source text: as §1, §2, §3, §4, §5, §6, §7, §8, §9

[6] = test system: PANCREATIC DUCTAL ADENOCARCINOMA #02; format: in vivo, murine; settings: BDF1 female mice, experiment ##
Source text: as §1, §2, §3, §4, §5, §6, §7, §8, §9

[7] = test system: HUMAN COLON ADENOCARCINOMA 15; format: in vivo; settings: Balb/C SCID female mice
Source text: as §1, §2, §3, §4, §5, §6, §7, §8, §9

HUMAN COLON ADEN[…]-116 = assay: Early stage human colon adenocarcinoma HCT-116 xenograft assay; format: in vivo; settings: Balb/C SCID female mice
Source text: as §1, §2, §3, §4, §5, §6, §7, §8, §9

[8] = IV 7.5 mg/kg/inj days 1 and 7, total dose 15 mg/kg
[9] = IV 28 mg/kg/inj days 3,5,7,9,11, total dose 140 mg/kg
[10] = IV 42 mg/kg/inj days 3,5,7,9,11, total dose 210 mg/kg
[11] = IV 28 mg/kg/inj days 1,3,5,7,9, total dose 140 mg/kg
[12] = IV 42 mg/kg/inj days 1,3,5,7,9, total dose 210 mg/kg
[13] = IV 42 mg/kg/inj days 1,3,7,9, total dose 168 mg/kg
[14] = IV 32 mg/kg/inj twice/day days 3,5,7,9,11, total dose 320 mg/kg

`COc1cccc2c1C(=O)c1c(O)c3c(c(O)c1C2=O)C[C@@](O)(C(=O)CO)C[C@@H]3O[C@H]1C[C@H](N)[C@H](O)[C@H](C)O1` [Adriamycin] was tested, and the “% T/C MASS” value [1] was 44%, the “DRUG DEATHS” value [1] was 0/5 and the “LOG KILL” value [1] was “None”. The “MEDIAN TUMOR WEIGHT” value [1] was 393 mg, the “DRUG DEATHS” value [2, 8] was 0/5 and the “LOG KILL” value [2, 8] was “None”. The “MEDIAN TUMOR WEIGHT” value [2, 8] was 1096 mg, the “% T/C MASS” value [3] was 0% and the “ACTIVITY RATING” value [3] was “+++ (2.0-2.8)”. The “DRUG DEATHS” value [3] was 0/6, the “GROWTH DELAY” value [3] was 16.6 days and the “LOG KILL” value [3] was 2.0. For the same compound, the “MEDIAN TUMOR WEIGHT” value [3] was 0 mg.
In the case of `COc1ccc(C[C@H]2NC(=O)/C=C/C[C@@H]([C@H](C)[C@@H](OC(=O)CN)[C@@H](Cl)c3ccccc3)OC(=O)[C@H](CC(C)C)OC(=O)C(C)(C)CNC2=O)cc1Cl` [Cryptophycin 55-GLY, Cryptophycin-55 glycinate], the “% T/C MASS” value [4, 9] was 0%, the “ACTIVITY RATING” value [4, 9] was “++++ (>2.8)” and the “DRUG DEATHS” value [4, 9] was 0/5. The “GROWTH DELAY” value [4, 9] was 15 days, the “LOG KILL” value [4, 9] was 3.5 and the “MEDIAN TUMOR WEIGHT” value [4, 9] was 0 mg. For the same compound, the “% T/C MASS” value [4, 10] was 0%, the “ACTIVITY RATING” value [4, 10] was “++++ (>2.8)” and the “DRUG DEATHS” value [4, 10] was 0/5. The “GROWTH DELAY” value [4, 10] was 17.5 days, the “LOG KILL” value [4, 10] was 4.1 and the “MEDIAN TUMOR WEIGHT” value [4, 10] was 0 mg. The “% T/C MASS” value [5, 11] was 24%, the “ACTIVITY RATING” value [5, 11] was “++ (1.3-1.9)” and the “DRUG DEATHS” value [5, 11] was 0/5. The “GROWTH DELAY” value [5, 11] was 5.25 days, the “LOG KILL” value [5, 11] was 1.6 and the “MEDIAN TUMOR WEIGHT” value [5, 11] was 577 mg. The “% T/C MASS” value [5, 12] was 0%, the “ACTIVITY RATING” value [5, 12] was “+++ (2.0-2.8)” and the “DRUG DEATHS” value [5, 12] was 0/5. For the same compound, the “GROWTH DELAY” value [5, 12] was 7.6 days, the “LOG KILL” value [5, 12] was 2.3 and the “MEDIAN TUMOR WEIGHT” value [5, 12] was 0 mg. The “% T/C MASS” value [6, 11] was 9%, the “ACTIVITY RATING” value [6, 11] was “++ (1.3-1.9)” and the “DRUG DEATHS” value [6, 11] was 0/5. For the same compound, the “GROWTH DELAY” value [6, 11] was 13 days, the “LOG KILL” value [6, 11] was 1.8 and the “MEDIAN TUMOR WEIGHT” value [6, 11] was 95 mg. For the same compound, the “% T/C MASS” value [6, 12] was 0%, the “ACTIVITY RATING” value [6, 12] was “+++ (2.0-2.8)” and the “DRUG DEATHS” value [6, 12] was 0/5. The “GROWTH DELAY” value [6, 12] was 16 days, the “LOG KILL” value [6, 12] was 2.2 and the “MEDIAN TUMOR WEIGHT” value [6, 12] was 0 mg. The “% T/C MASS” value [2, 11] was 24%, the “ACTIVITY RATING” value [2, 11] was “++ (1.3-1.9)” and the “DRUG DEATHS” value [2, 11] was 0/5. For the same compound, the “GROWTH DELAY” value [2, 11] was 6.2 days, the “LOG KILL” value [2, 11] was 1.7 and the “MEDIAN TUMOR WEIGHT” value [2, 11] was 48 mg. The “% T/C MASS” value [2, 13] was 0%, the “ACTIVITY RATING” value [2, 13] was “+++ (2.0-2.8)” and the “DRUG DEATHS” value [2, 13] was 0/5. For the same compound, the “GROWTH DELAY” value [2, 13] was 7.8 days, the “LOG KILL” value [2, 13] was 2.1 and the “MEDIAN TUMOR WEIGHT” value [2, 13] was 0 mg. For the same compound, the “% T/C MASS” value [7, 9] was 15%, the “ACTIVITY RATING” value [7, 9] was “+++ (2.0-2.8)” and the “DRUG DEATHS” value [7, 9] was 0/5. The “GROWTH DELAY” value [7, 9] was 21.5 days, the “LOG KILL” value [7, 9] was 2.2 and the “MEDIAN TUMOR WEIGHT” value [7, 9] was 171 mg. The “% T/C MASS” value [7, 14] was 0%, the “ACTIVITY RATING” value [7, 14] was “++++ (>2.8)” and the “DRUG DEATHS” value [7, 14] was 0/5. For the same compound, the “GROWTH DELAY” value [7, 14] was 56 days, the “LOG KILL” value [7, 14] was 4.0 and the “MEDIAN TUMOR WEIGHT” value [7, 14] was 0 mg. For the same compound, the “% T/C MASS” value [7, 10] was 5.5%, the “ACTIVITY RATING” value [7, 10] was “+++ (2.0-2.8)” and the “DRUG DEATHS” value [7, 10] was 0/5. The “GROWTH DELAY” value [7, 10] was 21.5 days, the “LOG KILL” value [7, 10] was 2.2 and the “MEDIAN TUMOR WEIGHT” value [7, 10] was 63 mg. For the same compound, the “% T/C MASS” value (HUMAN COLON ADEN[…]-116; [9]) was 5.5%, the “ACTIVITY RATING” value (HUMAN COLON ADEN[…]-116; [9]) was “+++ (2.0-2.8)” and the “DRUG DEATHS” value (HUMAN COLON ADEN[…]-116; [9]) was 0/5. The “GROWTH DELAY” value (HUMAN COLON ADEN[…]-116; [9]) was 22 days, the “LOG KILL” value (HUMAN COLON ADEN[…]-116; [9]) was 2.65 and the “MEDIAN TUMOR WEIGHT” value (HUMAN COLON ADEN[…]-116; [9]) was 63 mg. For the same compound, the “% T/C MASS” value (HUMAN COLON ADEN[…]-116; [14]) was 0%, the “ACTIVITY RATING” value (HUMAN COLON ADEN[…]-116; [14]) was “++++ (>2.8)” and the “DRUG DEATHS” value (HUMAN COLON ADEN[…]-116; [14]) was 0/4. For the same compound, the “GROWTH DELAY” value (HUMAN COLON ADEN[…]-116; [14]) was 35 days, the “LOG KILL” value (HUMAN COLON ADEN[…]-116; [14]) was 4.2 and the “MEDIAN TUMOR WEIGHT” value (HUMAN COLON ADEN[…]-116; [14]) was 0 mg. For the same compound, the “% T/C MASS” value (HUMAN COLON ADEN[…]-116; [10]) was 0%, the “ACTIVITY RATING” value (HUMAN COLON ADEN[…]-116; [10]) was “++++ (>2.8)” and the “DRUG DEATHS” value (HUMAN COLON ADEN[…]-116; [10]) was 0/5. For the same compound, the “GROWTH DELAY” value (HUMAN COLON ADEN[…]-116; [10]) was 25 days, the “LOG KILL” value (HUMAN COLON ADEN[…]-116; [10]) was 3.0 and the “MEDIAN TUMOR WEIGHT” value (HUMAN COLON ADEN[…]-116; [10]) was 0 mg.
